Laboratory results as given in PubChem BioAssay AID1794829.
Inconclusive results are not listed.

Molecular target: Solute carrier family 2, facilitated glucose transporter member 2 (Homo sapiens) (UniProt P11168)
Assay: SLC2A2-mediated glucose transport in cells – cell-based, flow cytometry, glucose FRET sensor, HEK293 JumpIN TRex, wild type, dose response (AID 1794829)
Conditions: HEK293 JumpIN SLC2A2-OE

Solute carrier family 2, facilitated glucose transporter member 2 (Homo sapiens), sequence (P11168 whole entry, looked up): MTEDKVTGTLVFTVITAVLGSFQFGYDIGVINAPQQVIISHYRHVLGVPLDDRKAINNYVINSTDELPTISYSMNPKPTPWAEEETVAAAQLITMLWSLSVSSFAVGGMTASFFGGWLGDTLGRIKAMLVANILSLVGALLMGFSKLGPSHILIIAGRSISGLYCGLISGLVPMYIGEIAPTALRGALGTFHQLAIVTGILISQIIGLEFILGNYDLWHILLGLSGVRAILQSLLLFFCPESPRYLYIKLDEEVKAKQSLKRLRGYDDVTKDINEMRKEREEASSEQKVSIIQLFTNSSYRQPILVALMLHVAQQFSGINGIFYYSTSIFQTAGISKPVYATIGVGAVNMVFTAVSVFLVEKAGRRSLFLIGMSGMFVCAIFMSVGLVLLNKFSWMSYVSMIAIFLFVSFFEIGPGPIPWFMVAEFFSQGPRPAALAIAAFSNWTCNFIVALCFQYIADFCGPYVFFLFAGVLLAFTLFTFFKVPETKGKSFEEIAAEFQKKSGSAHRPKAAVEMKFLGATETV

EC50 (substrate-induced FRET increase): 710 µM
Structure (SMILES): OC[C@H]1OC(O)[C@H](O)[C@@H](O)[C@@H]1O (stereo partly specified)
